Measurements reported in US8802664B2 (Bioproject, priority 2010, dated 2014).
Counter-ions that a name gives are not always drawn.

Legend:
[1] = biological target: T1, human H4 receptor (Homo sapiens, UniProt Q9H3N8); experiment: [3H]Histamine binding on membranes of CHO cells stably expressing human H4 receptor
T1 construct: expressed in transfected cells
Outline: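 CHO-hH4 membranes 20 μg/well; buffer 50 mM Tris/HCl, 0.5 mM EDTA, pH 7.4; NSB: 10 μM JNJ 7777120 (BP1.2404); GF/B filtration (PEI-presoaked), 3 ice-cold washes; scintillation counting.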

T1 sequence (Q9H3N8 whole entry): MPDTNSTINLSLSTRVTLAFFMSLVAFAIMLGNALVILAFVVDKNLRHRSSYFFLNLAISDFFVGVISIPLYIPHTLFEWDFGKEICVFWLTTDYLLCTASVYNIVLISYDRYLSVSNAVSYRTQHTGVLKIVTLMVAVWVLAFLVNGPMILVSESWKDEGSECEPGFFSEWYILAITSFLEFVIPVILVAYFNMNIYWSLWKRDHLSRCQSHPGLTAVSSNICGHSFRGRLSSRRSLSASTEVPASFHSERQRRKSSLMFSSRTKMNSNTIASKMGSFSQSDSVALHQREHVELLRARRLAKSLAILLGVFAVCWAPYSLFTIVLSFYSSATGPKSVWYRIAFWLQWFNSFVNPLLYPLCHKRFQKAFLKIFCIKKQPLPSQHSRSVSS

SMILES | melting point | Ki or IC50 activity class [1]
Cc1ccc(C(OC2CCN(C)CC2)c2nc3ccccc3o2)c(F)c1 (stereo not shown) (as salt: oxalate) [Example 545] | 110 °C | –
CN1CCC(OC(c2cccc(OCCCC(F)(F)F)c2)c2nc3ccccc3s2)CC1 (stereo not shown) (as salt: oxalate) [Example 169, 2-{(1-methylpiperidin-4-yloxy)[3-(4,4,4-trifluoro-butoxy)phenyl]methyl}benzothiazole] | 115 °C | –
CN1CCC(OC(c2ccccc2)c2nc3ccccc3s2)C1 (stereo not shown) (as salt: oxalate) [Example 2, 2-[(1-methylpyrrolidin-3-yloxy)phenyl-methyl]benzothiazole] | 120 °C | –
CN1CCC(OC(c2cccc(OCCCl)c2)c2nc3ccccc3s2)CC1 (stereo not shown) (as salt: oxalate) [Example 354, 2-[[3-(2-Chloroethoxy)phenyl](1-methylpiperidin-4-yloxy)methyl]benzothiazole] | 70 °C | –
Cc1cc(C(NC2CCN(C)CC2)c2nc3ccccc3s2)ccc1F (stereo not shown) (as salt: oxalate) [Example 35, [benzothiazol-2-yl(4-fluoro-3-methyl-phenyl)methyl](1-methylpiperidin-4-yl)amine] | 160 °C | –
CCCCOc1cccc(C(OC2CCN(C)CC2)c2nc3ccccc3s2)c1 (stereo not shown) (as salt: oxalate) [Example 92, 2-[(3-butoxyphenyl)(1-methylpiperidin-4-yloxy)methyl]benzothiazole] | 135 °C | –
CN1CCC(OC(c2cccc(CCCCCN)c2)c2nc3ccccc3s2)CC1 (stereo not shown) (as salt: hydrochloride) [Example 289, 5-{3-[benzothiazol-2-yl(1-methylpiperidin-4-yloxy)methyl]phenyl}pentylamine] | 110 °C | –
CN1CCC(OC(c2nc3ccccc3[nH]2)c2cc(I)ccc2F)CC1 (stereo not shown) (as salt: oxalate) [Example 425, 2-[(2-fluoro-5-iodo-phenyl)(1-methylpiperidin-4-yloxy)methyl]-1H-benzimidazole] | 175 °C | –
CN1CCC(OC(c2cccc(OCCCCCNCC(=O)OC(C)(C)C)c2)c2nc3ccccc3s2)CC1 (stereo not shown) (as salt: oxalate) [Example 375, (5-{3-[benzothiazol-2-yl(1-methylpiperidin-4-yloxy)methyl]phenoxy}pentylamino)acetic acid tert-butyl ester] | 99 °C | –
COc1cccc(COc2cccc(C(OC3CCN(C)CC3)c3nc4ccccc4s3)c2)c1 (stereo not shown) (as salt: oxalate) [Example 185, 2-[[3-(3-methoxybenzyloxy)phenyl](1-methylpiperidin-4-yloxy)methyl]benzothiazole] | 77 °C | –
CN1CCC(OC(c2cccc(OCc3ccncc3)c2)c2nc3ccccc3s2)CC1 (stereo not shown) (as salt: oxalate) [Example 265, 2-{(1-methylpiperidin-4-yloxy)[3-(pyridin-4-ylmethoxy)phenyl]methyl}benzothiazole] | 101 °C | –
C=CCOc1cccc(C(NC2CCN(C)CC2)c2nc3ccccc3[nH]2)c1 (stereo not shown) [Example 112, [(3-allyloxyphenyl)(1H-benzimidazol-2-yl)methyl](1-methylpiperidin-4-yl)amine] | – | < 1000 nM
CN1CCC(OC(c2cccc(-c3ccccc3)c2)c2nc3ccccc3[nH]2)CC1 (stereo not shown) [Example 81, 2-[biphenyl-3-yl(1-methylpiperidin-4-yloxy)methyl]-1H-benzimidazole] | – | < 300 nM
CN1CCC(OC(c2cccc(C#CCCN)c2)c2nc3ccccc3[nH]2)CC1 (stereo not shown) [Example 286, 4-{3-[(1H-benzimidazol-2-yl)(1-methylpiperidin-4-yloxy)methyl]phenyl}but-3-ynylamine] | – | < 300 nM
CSc1cccc(C(OC2CCN(C)CC2)c2nc3ccccc3[nH]2)c1 (stereo not shown) [Example 202, 2-[(1-methylpiperidin-4-yloxy)(3-methylsulfanyl-phenyl)methyl]-1H-benzimidazole] | – | < 30 nM
CN1CCC(OC(c2cccc(SCCCF)c2)c2nc3ccccc3[nH]2)CC1 (stereo not shown) [Example 508] | – | < 30 nM
COc1cc(F)cc(C(NC2CCN(C)CC2)c2nc3ccccc3s2)c1 (stereo not shown) [Example 43, [benzothiazol-2-yl(3-fluoro-5-methoxyphenyl)methyl](1-methylpiperidin-4-yl)amine] | – | < 300 nM
CN1CCC(OC(c2ccc3c(c2)OCCO3)c2nc3ccccc3s2)CC1 (stereo not shown) [Example 10, 2-[(2,3-dihydrobenzo[1,4]dioxin-6-yl)(1-methylpiperidin-4-yloxy)methyl]benzothiazole] | – | < 30 nM
CN1CCC(OC(c2cccc(CCC(=O)OC(C)(C)C)c2)c2nc3ccccc3s2)CC1 (stereo not shown) [Example 208, 3-{3-[benzothiazol-2-yl(1-methylpiperidin-4-yloxy)methyl]phenyl}propionic acid tert-butyl ester] | – | < 300 nM
CN1CCC(OC(c2cccc(SCC(=O)NCCN)c2)c2nc3ccccc3[nH]2)CC1 (stereo not shown) [Example 436, N-(2-aminoethyl)-2-{3-[(1H-benzimidazol-2-yl)(1-methylpiperidin-4-yloxy)methyl]phenylsulfanyl}acetamide] | – | < 30 nM
COc1cccc(COc2cccc(C(NC3CCN(C)CC3)c3nc4ccccc4[nH]3)c2)c1 (stereo not shown) [Example 125, {(1H-benzimidazol-2-yl)[3-(3-methoxybenzyloxy)phenyl]methyl}(1-methylpiperidin-4-yl)amine] | – | < 30 nM
CN1CCC(OC(c2nc3ccccc3s2)c2ccccc2F)CC1 (stereo not shown) [Example 6, 2-[(2-fluorophenyl)(1-methylpiperidin-4-yloxy)methyl]benzothiazole] | – | < 300 nM

SMILES | melting point | Ki or IC50 activity class [1]
CN1CCC(OC(c2cccc(N3CCC(O)(C(F)(F)F)C3)c2)c2nc3ccccc3s2)CC1 (stereo not shown) [Example 460, 1-{3-[benzothiazol-2-yl(1-methylpiperidin-4-yloxy)methyl]phenyl}-3-trifluoromethylpyrrolidin-3-ol] | – | < 1000 nM
CN1CCC(OC(c2cccc(C#CCCNC(=N)NC(=O)OC(C)(C)C)c2)c2nc3ccccc3[nH]2)CC1 (stereo not shown) [Example 307, N-tert-butoxycarbonyl-N′-(4-{3-[(1H-benzimidazol-2-yl)(1-methylpiperidin-4-yloxy)methyl]phenyl}but-3-ynyl)guanidine] | – | < 1000 nM
CN1CCC(OC(c2cccc(SCCCCN)c2)c2nc3ccccc3s2)CC1 (stereo not shown) [Example 359, 4-{3-[benzothiazol-2-yl(1-methylpiperidin-4-yloxy)methyl]phenylsulfanyl}butylamine] | – | < 30 nM
CN1CCC(OC(c2cccc(F)c2)c2nc3ccccc3s2)CC1 (stereo not shown) [Example 5] | – | < 300 nM
CN1CCC(OC(c2ccc3cc[nH]c3c2)c2nc3ccccc3[nH]2)CC1 (stereo not shown) [Example 550, 2-[(1H-indol-6-yl)(1-methylpiperidin-4-yloxy)methyl]-1H-benzimidazole] | – | < 30 nM
CN1CCC(OC(c2cccc(OCCN3CCN(C(=O)OC(C)(C)C)CC3)c2)c2nc3ccccc3s2)CC1 (stereo not shown) [Example 328, 4-(2-{3-[benzothiazol-2-yl(1-methylpiperidin-4-yloxy)methyl]phenoxy}ethyl)piperazine-1-carboxylic acid tert-butyl ester] | – | < 30 nM
CN1CCC(OC(c2cccc(N3CCC(N(C)C)C3)c2)c2nc3ccccc3s2)CC1 (stereo not shown) [Example 484] | – | < 30 nM
CN1CCC(OC(c2ccc(F)c(OC(F)(F)F)c2)c2nc3ccccc3[nH]2)CC1 (stereo not shown) [Example 518] | – | < 1000 nM
CN1CCC(OC(c2ccc3occc3c2)c2nc3ccccc3s2)CC1 (stereo not shown) [Example 46, 2-[benzofuran-5-yl(1-methylpiperidin-4-yloxy)methyl]benzothiazole] | – | < 300 nM
CN1CCC(OC(c2nc3ccccc3[nH]2)c2c(F)cccc2F)CC1 (stereo not shown) [Example 512] | – | < 30 nM
C=Cc1cccc(C(OC2CCN(C)CC2)c2nc3ccccc3[nH]2)c1 (stereo not shown) [Example 245, 2-[(1-methylpiperidin-4-yloxy)(3-vinyl-phenyl)methyl]-1H-benzimidazole] | – | < 300 nM
CN1CCC(OC(c2cccc(SCCO)c2)c2nc3ccccc3[nH]2)CC1 (stereo not shown) [Example 157, 2-{3-[(1H-benzimidazol-2-yl)(1-methylpiperidin-4-yloxy)methyl]phenylsulfanyl}ethanol] | – | < 300 nM
CN1CCC(OC(c2cccc(OCC=CCO)c2)c2nc3ccccc3s2)CC1 (stereo not shown) [Example 422, 4-{3-[benzothiazol-2-yl(1-methylpiperidin-4-yloxy)methyl]phenoxy}but-2-en-1-ol] | – | < 30 nM
CN1CCC(OC(c2cccc(OC3CNC3)c2)c2nc3ccccc3s2)CC1 (stereo not shown) [Example 402, 2-[[3-(azetidin-3-yloxy)phenyl](1-methylpiperidin-4-yloxy)methyl]benzothiazole] | – | < 300 nM
CC(=O)CCCOc1cccc(C(OC2CCN(C)CC2)c2nc3ccccc3s2)c1 (stereo not shown) [Example 186, 5-{3-[benzothiazol-2-yl(1-methylpiperidin-4-yloxy)methyl]phenoxy}pentan-2-one] | – | < 1000 nM
CN1CCC(NC(c2cccc(OCCOc3ccccc3)c2)c2nc3ccccc3[nH]2)CC1 (stereo not shown) [Example 106, {(1H-benzimidazol-2-yl)[3-(2-phenoxyethoxy)phenyl]methyl}(1-methylpiperidin-4-yl)amine] | – | < 300 nM
CN1CCC(OC(c2cccc(OCc3ccccn3)c2)c2nc3ccccc3s2)CC1 (stereo not shown) [Example 283, 2-{(1-methylpiperidin-4-yloxy)[3-(pyridin-2-ylmethoxy)phenyl]methyl}benzothiazole] | – | < 30 nM
CN1CCC(OC(c2cccc(OCCCCN)c2)c2nc3ccccc3[nH]2)CC1 (stereo not shown) [Example 331, 4-{3-[(1H-benzimidazol-2-yl)(1-methylpiperidin-4-yloxy)methyl]phenoxy}butylamine] | – | < 300 nM
CN1CCC(OC(c2cccc(OC3CC4CNCC4C3)c2)c2nc3ccccc3s2)CC1 (stereo not shown) [Example 466] | – | < 30 nM
CNC1CCN(c2cccc(C(OC3CCN(C)CC3)c3nc4ccccc4s3)c2)C1 (stereo not shown) [Example 483] | – | < 300 nM
COc1cccc(C(NC2CCN(C)CC2)c2nc3ccccc3s2)c1 (stereo not shown) [Example 25, [benzothiazol-2-yl(3-methoxyphenyl)methyl](1-methylpiperidin-4-yl)amine] | – | < 30 nM
